Experimental data reported in PubChem BioAssay AID2060606 (Molecular Pharmacology Branch, DTP, NCI, 2025).

Tested on: 922993-354-T-J3-PDC complex spheroids, viability, % test/control
Experiment: Anticancer human tumor 922993-354-T-J3-PDC patient-derived endometrial carcinoma cell line growth inhibition [CLK]
Details: for IC50: curve of first compound; for viability, T/C: stronger effect = lower value; active means viability on the fitted dose curve at most 10% of control; inactive means the rest
Description: A high-throughput screen of multi-cell type tumor spheroids was designed to identify active combinations of […] and targeted small molecules. Complex spheroids include a stromal component modeled by human endothelial cells (HUVEC) and fibroblasts modeled by human mesenchymal stem cells (MSCs). The concentration ranges selected for each drug and investigational agent were based upon clinically achievable concentrations if the clinical Cmax of the agent was known.
Compounds. The drugs and investigational agents: cirtuvivint (SM08502; NSC835563), CC-671 (NSC850746), vemurafenib (NSC761431), tapotoclax (NSC804041), sotorasib (NSC818433), adagrasib (NSC831453), MRTX-1133 (NSC836407), BAY2416964 (NSC825713), copanlisib (NSC816437), inavolisib (NSC800729), abemaciclib (NSC768073), osimertinib (NSC779217), entinostat (NSC756642), eltanexor (KPT-8602, NSC794443), venetoclax (NSC766270), ceralasertib (NSC777638), bortezomib (NSC756655), olaparib (NSC753686), talazoparib (NSC767125), alisertib (NSC759677), peposertib (NSC802822), gemcitabine (NSC613327), 5-fluorouracil (NSC19893), SN-38 (NSC673596), oxaliplatin (NSC266046), paclitaxel (NSC125973), and doxorubicin (NSC123127), were obtained from the National Cancer Institute (NCI) Developmental Therapeutics Program Chemical Repository. The FDA-approved anticancer drug set is available from the Developmental Therapeutics Program at https://dtp.cancer.gov/organization/dscb/obtaining/available plates.htm. […] The stock solutions were prepared in dimethyl sulfoxide (DMSO, Sigma-Aldrich, St. Louis, MO, cat. D2650), except for the platinum complexes which were prepared in saline (Quality Biological, Gaithersburg, MD, cat. 114-055-101), at 800-fold the tested concentration and stored at -70 degrees C prior to their use. All drugs and investigational agents were tested over a range starting from a high concentration at or near the clinical Cmax and decreasing in half-log increments. If the clinical Cmax for an agent had not been determined, the highest concentration tested was 10 microM.
Cell Culture. All cells were maintained in an incubator at 37 degrees C and 5% CO2 with 95% humidity. The PDC lines were cultured according to standard operating procedures established by the NCI PDMR. Briefly, all PDCs were thawed and cultured in Matrigel-coated flasks prepared with a working solution of 1X Ham's F-12 nutrient mix, without supplementation (Invitrogen, Waltham, MA, cat. 11765054), 100 U/mL penicillin-streptomycin (Invitrogen, cat. 15140122), and 2.5% Matrigel (Corning Inc., Corning, NY, cat. 354248) for the first three passages. The 947758-054-R-J2-PDC line was cultured in 6B/Colon 1A media, which includes advanced DMEM/F-12 (Thermo Fisher Scientific, cat. 12634028), 10 mM HEPES (Thermo Fisher Scientific, cat. 15630080), 1X GlutaMAX supplement (Thermo Fisher Scientific, cat. 35050061), 0.1 mg/mL primocin (InvivoGen, cat. ant-pm-2), 10% defined fetal bovine serum, heat inactivated (HyClone Laboratories Inc., cat. SH30070.03HI), 1.25 mM N-Acetyl-L-cysteine (Sigma-Aldrich, cat. A9165), 10 mM nicotinamide (Sigma-Aldrich, cat. N0636), 1X B-27 supplement (Thermo Fisher Scientific, cat. 17504044), 1X N-2 supplement (Thermo Fisher Scientific, cat. 17502048), and 10 microM Y-27632 dihydrochloride (Tocris Bioscience, cat. 1254). The 876862-298-R-J1-PDC was cultured in 6E media, which includes all 6B/Colon 1A media components plus 50% L-WRN conditioned media (ATCC, cat. CRL-3276), 50 ng/mL recombinant human EGF recombinant protein (hEGF; Thermo Fisher Scientific, cat. PHG0311), 10 ng/mL recombinant human fibroblast growth factor 10 (hGFG-10; PeproTech, cat. 100-26), 1 ng/mL recombinant human fibroblast growth factor 2 (hFGF-2; PeproTech, cat. 100-18B), and 1 µM prostaglandin E2 (PGE2; Tocris, cat. 2296). The 227483-062-R1-J1-PDC line was cultured in Panc media, containing all 6E components except hFGF-2, with the addition of 500 nM SB-431542 (Selleckchem, cat. S1067) and 10 nM gastrin (Tocris, cat. 3006). […]

[1] = second compound 0.0316 µM, first compound 0.0316 µM
[2] = second compound 0.0316 µM, first compound 0.1 µM
[3] = second compound 0.0316 µM, first compound 0.316 µM
[4] = second compound 0.0316 µM, first compound 1 µM
[5] = second compound 0.0316 µM, first compound 3.16 µM
[6] = second compound 0.0316 µM, first compound 10 µM
[7] = second compound 0.1 µM, first compound 0.0316 µM
[8] = second compound 0.1 µM, first compound 0.1 µM
[9] = second compound 0.1 µM, first compound 0.316 µM
[10] = second compound 0.1 µM, first compound 1 µM
[11] = second compound 0.1 µM, first compound 3.16 µM
[12] = second compound 0.1 µM, first compound 10 µM
[13] = second compound 0.316 µM, first compound 0.0316 µM
[14] = second compound 0.316 µM, first compound 0.1 µM
[15] = second compound 0.316 µM, first compound 0.316 µM
[16] = second compound 0.316 µM, first compound 1 µM
[17] = second compound 0.316 µM, first compound 3.16 µM
[18] = second compound 0.316 µM, first compound 10 µM
[19] = second compound 1 µM, first compound 0.0316 µM
[20] = second compound 1 µM, first compound 0.1 µM
[21] = second compound 1 µM, first compound 0.316 µM
[22] = second compound 1 µM, first compound 1 µM
[23] = second compound 1 µM, first compound 3.16 µM
[24] = second compound 1 µM, first compound 10 µM
[25] = second compound 3.16 µM, first compound 0.0316 µM
[26] = second compound 3.16 µM, first compound 0.1 µM
[27] = second compound 3.16 µM, first compound 0.316 µM
[28] = second compound 3.16 µM, first compound 1 µM
[29] = second compound 3.16 µM, first compound 3.16 µM
[30] = second compound 3.16 µM, first compound 10 µM
[31] = second compound 10 µM, first compound 0.0316 µM
[32] = second compound 10 µM, first compound 0.1 µM
[33] = second compound 10 µM, first compound 0.316 µM
[34] = second compound 10 µM, first compound 1 µM
[35] = second compound 10 µM, first compound 3.16 µM
[36] = second compound 10 µM, first compound 10 µM
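Further: spheroids exposed to the agents for 7 days before readout.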

C=C(F)C(=O)N1CCN(c2nc(OCC3CCCN3C)nc3c2CCN(c2cccc4cccc(Cl)c24)C3)CC1CC#N (centres undefined) + CN1CCN(c2cc(C(=O)Nc3cc4cc(-c5cnn(C)c5)ccc4cn3)ccn2)CC1
5380 nM: IC50 (second compound 0.0316 µM)
inactive: viability, T/C [1] 121% | viability, T/C [2] 103% | viability, T/C [3] 118% | viability, T/C [4] 101% | viability, T/C [5] 94% | viability, T/C [7] 106% | viability, T/C [8] 95.9% | viability, T/C [9] 92.6% | viability, T/C [10] 87% | viability, T/C [11] 110% | viability, T/C [13] 50.1% | viability, T/C [14] 51.6% | viability, T/C [15] 36.4% | viability, T/C [16] 41.5% | viability, T/C [17] 45.6%
< 31.6 nM: IC50 (second compound 0.316 µM) | IC50 (second compound 1 µM) | IC50 (second compound 3.16 µM) | IC50 (second compound 10 µM)
5610 nM: IC50 (second compound 0.1 µM)
active: viability, T/C [6] 1.08% | viability, T/C [12] 1.37% | viability, T/C [18] 0.87% | viability, T/C [19] 0.79% | viability, T/C [20] 0.16% | viability, T/C [21] 0.83% | viability, T/C [22] 0.12% | viability, T/C [23] 0.11% | viability, T/C [24] 1.63% | viability, T/C [25] 0.14% | viability, T/C [26] 0.63% | viability, T/C [27] 0.92% | viability, T/C [28] 0.12% | viability, T/C [29] 0.11% | viability, T/C [30] 1.67% | viability, T/C [31] 0.19% | viability, T/C [32] 0.18% | viability, T/C [33] 0.88% | viability, T/C [34] 0.29% | viability, T/C [35] 0.19% | viability, T/C [36] 0.93%

CC(CO)NC(=O)c1cc(-c2ccc(Cl)cc2)nn(-c2cnn(C)c2)c1=O (centres undefined) + CN1CCN(c2cc(C(=O)Nc3cc4cc(-c5cnn(C)c5)ccc4cn3)ccn2)CC1
active: viability, T/C [19] 0.14% | viability, T/C [20] 0.16% | viability, T/C [21] 0.16% | viability, T/C [22] 0.12% | viability, T/C [23] 0.98% | viability, T/C [24] 1.3% | viability, T/C [25] 0.15% | viability, T/C [26] 0.63% | viability, T/C [27] 0.87% | viability, T/C [28] 1.29% | viability, T/C [29] 1.41% | viability, T/C [30] 0.14% | viability, T/C [31] 0.2% | viability, T/C [32] 0.21% | viability, T/C [33] 2% | viability, T/C [34] 0.26% | viability, T/C [35] 0.7% | viability, T/C [36] 1.23%
< 31.6 nM: IC50 (second compound 0.316 µM) | IC50 (second compound 1 µM) | IC50 (second compound 3.16 µM) | IC50 (second compound 10 µM)
inactive: viability, T/C [1] 119% | viability, T/C [2] 98.2% | viability, T/C [3] 93.1% | viability, T/C [4] 98% | viability, T/C [5] 84.8% | viability, T/C [6] 96% | viability, T/C [7] 95.2% | viability, T/C [8] 77.1% | viability, T/C [9] 80.8% | viability, T/C [10] 69.5% | viability, T/C [11] 77.2% | viability, T/C [12] 72.1% | viability, T/C [13] 47.6% | viability, T/C [14] 49.6% | viability, T/C [15] 40% | viability, T/C [16] 33.6% | viability, T/C [17] 35.3% | viability, T/C [18] 35.9%
> 10000 nM: IC50 (second compound 0.0316 µM) | IC50 (second compound 0.1 µM)
